Data from US10450322B2, “Low molecular weight derivatives of carboxamide halogenated porphyrins, namely chlorins and bacteriochlorins, and their applications thereof” (LUZITIN, S.A., priority 2015, dated 2019).

Tests used:
[1] = n-Octanol:PBS partition ratio (shake-flask); format: physicochemical
Description: a modification of the shake-flask method was employed to determine the equilibrium concentrations of the photosensitizer in n-octanol and in phosphate-buffered saline (PBS) mixed in equal volumes, using the typical fluorescence band of the same photosensitizer and calibration curves.
This example describes the evaluation of in vitro phototoxicity of a carboxamide bacteriochlorin with formula IX after light irradiation, and their potential for PDT application in the treatment of acne vulgaris. The phototoxicity was measured according to the description in the Materials and Methods section. The n-octanol:PBS partition ratio of IX is POW=2.9±0.5. An adequate formulation for this carboxamide bacteriochlorin is PEG400:DMSO (55:45). The phototoxicity of the test compound is proportional to the inhibition of P. acnes viability relative to the non-treated control, and is represented in FIG. 5 in the form of CFU reduction as a function of photosensitizer concentration for the light doses of 4 and 10 J/cm^2.

[2] = Skin permeation: amount of photosensitizer in pig skin after topical formulation; format: in vitro ADME; conditions: for Concentration average: 6 experiments
Procedure: (§1) Skin permeation was evaluated using a topical formulation containing benzyl alcohol (23%), Kolliphor EL (17%), Transcutol (50%) and water (10%). The photosensitizer added to this formulation corresponded to 1.85% of the mass before its addition, and the gelling agent (Aerosil 200) added corresponded to 5% of the mass before its addition. The photosensitizer was first dissolved in Transcutol and exposed to 3 min of vortex and 5 min of ultrasounds. A mixture of benzyl alcohol and Kolliphor EL was then added. Immediately after, it was mixed in an IKA MIXER at 200 rpm for 5 min and water was added drop-by-drop for 10 min. Finally, the gelling agent, Aerosil 200, was mixed in and the microemulsion gel was obtained. Skin permeation studies were performed in pig skin using samples collected from 5 months old pigs. The hair was removed as well as the underlying fatty layer, before the permeation studies.
(§2) This example describes the permeation of carboxamide bacteriochlorin with formula IX in pig skin. The topical formulation and the animal model were described in the Materials and Methods section. The permeation was assessed both in terms of the amount of photosensitizer in the skin after designated times of contact between the topical formulation and the skin (incubation time) and in terms of the depth of the permeation in the skin.
The assessment of the amount of carboxamide bacteriochlorin with formula IX in the skin after various incubation times involved the following steps: (i) application of 0.30 ml of formulation in 1 cm^2 areas of minipig skin to make 6 independent measurements for the incubation times of 30, 60 and 120 minutes; (ii) cleaning of the surface of the skin at the end of the incubation times; (iii) cutting the skin in small pieces and maceration in 2 ml of dichloromethane with the aid of dispersing machine; (iv) extraction with 10 ml of dichloromethane in a falcon tube for six hours; (v) dilution by a factor of 5 with ethanol. The volume of 200 μl of the test solution was added in triplicate to 96 well plate and fluorescence intensity was detected using a Synergy HT microplate reader form Biotek (California, USA), with an excitation filter of 508/20 nm and emission filter of 760/35 nm, against a calibration curve. The signal of a blank obtained with the same cleaning method was subtracted from the signal of the sample and the concentration of the photosensitizer in each sample was obtained with the calibration curve. A summary of the results can be seen in Table 2.

CT26 subcutaneous tumors = assay: In vivo antitumor PDT of CT26 subcutaneous tumors in BALB/c mice; conditions: 15 min drug-to-light interval
[3] = Optical absorption (UV-Vis-NIR) in ethanol; format: physicochemical
Procedure: The UV-Vis-NIR optical absorption was recorded with an Agilent Cary5000 UV-Vis-NIR Spectrophotometer in the determination of the molar absorption coefficient and with Shimadzu UV-2100 spectrometer in routine measurements. The absorption spectra were recorded in the wavelengths from 300 nm up to 800 nm.
(§3) This is indicative of negligible aggregation between the molecules, which exist mostly as monomers at these concentrations in the solvents studied. Table 1 presents the infrared molar absorption coefficient (εmax) and wavelength maximum in ethanol of a typical carboxamide halogenated bacteriochlorin derivative of Formula (I). The same table also presents triplet lifetimes (τT) in air and N2 saturated solutions, fluorescence lifetime (τS), the quantum yields of fluorescence (ΦF), triplet state formation (ΦT), and singlet oxygen generation (ΦΔ) in ethanol, and photodegradation quantum yield (Φpd) in methanol:PBS (3:2). Triplet decays were clearly mono-exponential and in air-saturated ethanol the triplet lifetimes were in the range of 200 to 300 nanoseconds. Such values are consistent with diffusion limited energy transfer from the triplet state of the photosensitizer to molecular oxygen through a charge-transfer interaction (8). The absorption intensity of the test compounds in the photobleaching studies followed a mono-exponential decrease as a function of the illumination time.

[4] = Singlet oxygen quantum yield (phosphorescence at 1270 nm); format: physicochemical; conditions: in ethanol
Description: The experiments were run at room temperature using the Nd-YAG laser Spectra-Physics Quanta-Ray GRC-130. The solutions were excited at 355 nm and the phosphorescence of singlet oxygen collected at 1270 nm in a Hamamatsu R5509-42 photomultiplier, cooled to 193 K in a liquid nitrogen chamber, after selection of the wavelength with a monochromator with 600 lines grading. Phenalenone was used as a reference of singlet oxygen generator. A Newport filter model 10LWF-1000-B was used in the emission to avoid scattering and fluorescence.
as §3, with “Such values are consistent with diffusion limited energy transfer from the triplet state of the photosensitizer to molecular oxygen through a charge-transfer interaction (8). The absorption intensity of the test compounds in the photobleaching studies followed a mono-exponential decrease as a function of the illumination time.” left out

[5] = Skin permeation: depth by confocal fluorescence microscopy; format: in vitro ADME, pig; conditions: in 90 minutes, topical formulation
Procedure: as §1
as §2, with “the skin. […]” for “the skin.”

## CNC(=O)c1c2nc(c(-c3c(F)cccc3F)c3ccc(cc4nc(c(-c5c(F)cccc5F)c5ccc1[nH]5)CC4)[nH]3)CC2 [formula IX, 5-methylcarboxamide-10,20-bis-(2,6-difluorophenyl)bacteriochlorin]
[1]
  Log POW: 2.9
  n-octanol:PBS partition ratio POW: 2.9±0.5
[2]; attained in 1.5 hours, topical formulation
  flux of the photosensitizer to the skin Jmax: 4×10^−8 mol/(cm^2 h)
[2]; incubation time 30 min
  Mass in the skin: 5.41 ± 1.33 μg/cm^2
  Concentration average: 0.909 µM
[2]; incubation time 60 min
  Mass in the skin: 19.9 ± 5.12 μg/cm^2
  Concentration average: 3.34 µM
[2]; incubation time 120 min
  Mass in the skin: 37.2 ± 7.45 μg/cm^2
  Concentration average: 6.26 µM
CT26 subcutaneous tumors; 0.15 mg/kg i.v., 40 J/cm^2
  cure: 100%
  tolerability of PDT: very well tolerated
  tumor response: complete regression
CT26 subcutaneous tumors; 0.3 mg/kg i.v., 40 J/cm^2 at 749 nm
  time post-PDT by which animals died of acute response to the treatment: less than 72 h
[3]
  λ (wavelength of maximum infrared absorption): 734 nm
[3]; at 734 nm
  ε (λ) molar absorption coefficient: 69 10^3 M^−1 cm^−1
[4]
  ΦΔ singlet oxygen quantum yield: 0.38
[5]
  depth of penetration in the skin: 40 μm
